Assay results taken from PubChem BioAssay AID1996.
Converted amounts (≈) assume the structure as drawn.

Settings: buffer; pH 7.4; 200.0 µM

Compound	solubility kinetic
COc1ccc(NC(=O)COc2ccc3oc(=O)cc(C)c3c2)cc1	< 0.7 µg/mL
Cc1ccc(C)c(C(=O)CCC(=O)NCc2ccc(Cl)cc2)c1	10.9 µg/mL (≈ 33 µM)
Cc1ccc(C)c(NC(=O)N2CCCCCC2)c1	> 37 µg/mL
CC(NCCC(c1ccccc1)c1ccccc1)c1ccccc1.Cl (stereo not given)	> 52.8 µg/mL
N#CC(C#N)=C/C=C(\Nc1ccc(Cl)cc1)c1ccc(Cl)cc1	> 51 µg/mL
COc1ccc(CN2CCCCCC2)cc1OC	21.6 µg/mL (≈ 86.6 µM)
CC(C)c1cccc(C(C)C)c1NC(=S)Nc1cccc(Cl)c1	< 0.4 µg/mL
Cc1nc2ccc(C(=O)O)cc2c2c1CC(CN)O2 (stereo not given)	19.7 µg/mL (≈ 76.3 µM)
COc1cccc(CC(=O)Nc2nc3c(s2)C(=O)CC(C)(C)C3)c1	1.8 µg/mL (≈ 5.23 µM)
O=C(/C=C/c1cccc([N+](=O)[O-])c1)OCC1CCCO1 (stereo not given)	34.4 µg/mL (≈ 124 µM)
O=C(CCCn1cnc([N+](=O)[O-])n1)Nc1cccc(O)c1	> 43.7 µg/mL
COc1ccccc1OCC(=O)NC1CCCCCCC1	40.8 µg/mL (≈ 140 µM)
Cc1cccc(N2CCN(C(=O)NC3CCCCC3)CC2C)c1 (stereo not given)	> 47.3 µg/mL
O=C(Nc1ccccc1)c1cc([N+](=O)[O-])ccc1Cl	3.1 µg/mL (≈ 11.2 µM)
COc1cc(/C=C2\NC(=O)NC2=O)cc(Br)c1OC	10.5 µg/mL (≈ 32.1 µM)
COc1cc(CN2CCCCCC2)c([N+](=O)[O-])cc1OC	34.8 µg/mL (≈ 118 µM)
CCn1ncc(N2CCOCC2)c(Cl)c1=O	> 36.6 µg/mL
COc1ccc(N2C(=O)CSC2c2ccccc2F)c(OC)c1 (stereo not given)	45.9 µg/mL (≈ 138 µM)
O=C(Nc1ncccc1O)c1ccc2ccccc2c1	> 39.6 µg/mL
O=C(N[C@@H]1C[C@H]2CC[C@@H]1C2)c1ccco1	29.8 µg/mL (≈ 145 µM)
Cn1c(CN2CCCCC2)nc2cc([N+](=O)[O-])ccc21	> 41.1 µg/mL
COc1cc(OC)cc(C(=O)Nc2cccc3ccccc23)c1	1.9 µg/mL (≈ 6.18 µM)
CC1(C)NC(=O)N(CC(=O)OCC(=O)c2ccc(Cl)s2)C1=O	> 51.7 µg/mL
Cl.O=C(CN1CCCC1)NCc1ccccc1	32.6 µg/mL

Compound	solubility kinetic
CC(=O)c1ccc(NC(=O)COC(=O)CC2CC3CCC2C3)cc1 (stereo not given)	37.5 µg/mL (≈ 114 µM)
CSc1nc2cc(Oc3cccc(Cl)c3Cl)c(Cl)cc2[nH]1	0.5 µg/mL (≈ 1.39 µM)
COC(=O)c1ccc(CNC(=O)COC(=O)c2cc(Cl)ccc2O)cc1	7.1 µg/mL (≈ 18.8 µM)
O=C(CCNC(=O)c1ccccc1Cl)OCC(=O)c1ccccc1	> 51.9 µg/mL
CCOc1ccc(C(=O)NCc2ccco2)cc1OCC	22.5 µg/mL (≈ 77.8 µM)
CSc1ncccc1C(=O)OCc1c(F)cccc1Cl	1.1 µg/mL (≈ 3.53 µM)
O=C(COC(=O)c1ccc(F)cc1)NC1CC1	> 35.6 µg/mL
Cc1c(/C=N/O)sc2ccccc12	10.8 µg/mL (≈ 56.5 µM)
CC(=O)N1CCN(CC(=O)Nc2cc([N+](=O)[O-])ccc2Cl)CC1	43.4 µg/mL (≈ 127 µM)
CCCCc1nc2sc3c(=O)[nH]cnc3c2c2c1CCCC2	< 0.2 µg/mL
COc1cccc(C(=O)COc2cccc(NC(=O)c3ccco3)c2)c1	14 µg/mL (≈ 39.8 µM)
COc1ccc(CN2C(=O)C(C)=C(C)C2OC)cc1 (stereo not given)	> 39.2 µg/mL
Cc1ccccc1NC(=O)CSc1nc2ccccc2c(=O)n1C	3 µg/mL (≈ 8.84 µM)
O=C(Nc1cccc(C(F)(F)F)c1)OC1CN2CCC1CC2 (stereo not given)	> 47.1 µg/mL
CC(C)OCCCNC(=O)COc1ccc2oc3c(c2c1)CCCC3	48.1 µg/mL (≈ 139 µM)
COc1ccc([C@@H]2OC2(C(N)=O)C(N)=O)cc1	32.2 µg/mL (≈ 136 µM)
Cc1ccc(NC(=O)C2CCCC2)cc1Cl	3.7 µg/mL (≈ 15.6 µM)
Cc1ccc(C(=O)NC(=S)N(C)Cc2ccccc2)cc1	2 µg/mL (≈ 6.7 µM)
Cc1cccc(NC(=O)CSc2nncn2-c2ccccn2)c1	> 48.8 µg/mL
CCCc1cc(C(=O)Nc2ccc(CC)cc2)no1	1.4 µg/mL (≈ 5.42 µM)
COc1ccc(C(=O)NCCNc2nc3c(C)cccc3cc2C#N)cc1	0.4 µg/mL (≈ 1.11 µM)
O=C(NCc1ccc(F)cc1)c1cccs1	29.9 µg/mL (≈ 127 µM)
O=C(Nc1cccc2c1CCCC2)c1ccc(F)cc1	2.2 µg/mL (≈ 8.17 µM)
N#Cc1c(-c2ccc(Cl)cc2)cc(-c2cccs2)nc1SCC(=O)O	13.2 µg/mL (≈ 34.1 µM)

Compound	solubility kinetic
CC1(C)Cc2nc3sc4c(SCC(=O)O)ncnc4c3cc2CO1	53.2 µg/mL (≈ 147 µM)
COc1ccc(CC(C)NCCc2ccc(OC)c(OC)c2)cc1 (stereo not given)	48.7 µg/mL (≈ 148 µM)
CCOC(=O)Cn1c(=O)n(Cc2ccc(C)cc2)c(=O)c2cccnc21	1.4 µg/mL (≈ 3.96 µM)
Nc1nc(NCCOCCO)nc(NC2CCCCC2)c1[N+](=O)[O-]	> 51.1 µg/mL
Cc1c(C(=O)N2c3ccccc3CC2C)oc2ccccc12 (stereo not given)	0.7 µg/mL (≈ 2.4 µM)
CCN(CC(=O)Nc1cc(Cl)ccc1C)C(=O)C1CC1	> 44.2 µg/mL
Oc1ccc2ccccc2c1CN1CCCC1	32 µg/mL (≈ 141 µM)
Cc1cccc(C(=O)O/N=C(\N)c2ccccn2)c1	> 38.3 µg/mL
CC(C)(C)C1CCC(N2CCN(c3ccccc3)CC2)CC1 (stereo not given)	0.5 µg/mL (≈ 1.66 µM)
COc1ccc2nc(Nc3nc(-c4ccncc4)cs3)sc2c1	0.8 µg/mL (≈ 2.35 µM)
O=C(NC(=O)c1ccc(F)cc1F)Nc1ccc(Cl)cc1	2.8 µg/mL (≈ 9.01 µM)
CCC(C)c1ccc(NC(=O)NCCN2CCCCC2)cc1 (stereo not given)	40.3 µg/mL (≈ 133 µM)
N#Cc1ccc(OCCN2CCc3ccccc3C2)cc1	41 µg/mL (≈ 147 µM)
O=C(COC(=O)c1ccc(F)cc1)Nc1ccc(Cl)cn1	0.8 µg/mL (≈ 2.59 µM)
CN1CCN(C(=O)c2ccccc2NC(=O)c2ccccc2)CC1	> 48.5 µg/mL
O=C(COC(=O)c1ccccc1O)Nc1cc([N+](=O)[O-])ccc1Cl	< 0.4 µg/mL
CC(C)C1Oc2ccccc2N(CC(=O)N2CCOCC2)C1=O (stereo not given)	> 47.8 µg/mL
CN(C)S(=O)(=O)c1ccc(C(=O)OC2CCOC2=O)cc1 (stereo not given)	> 47 µg/mL
COc1ccccc1-n1c(SCC(=O)O)nc2sc3c(c2c1=O)CCC3	41.8 µg/mL (≈ 108 µM)
CC1=NOC(=O)/C1=C\c1ccccc1	24.4 µg/mL (≈ 130 µM)
CC(=O)Oc1ccc(C(=O)Nc2cc(C)on2)cc1	38.1 µg/mL (≈ 146 µM)
O=C(Cc1ccccc1F)NCC1(N2CCOCC2)CCCCC1	> 50.2 µg/mL
COc1ccc(-c2cc(C(=O)N3CCCC3)no2)cc1OC	43.8 µg/mL (≈ 145 µM)
CC(CN1CCOCC1)OC(=O)Cc1ccccc1.Cl (stereo not given)	33.3 µg/mL

Compound	solubility kinetic
CC(C)NC(=O)COC(=O)c1ccc(Cl)c(S(N)(=O)=O)c1	> 50.2 µg/mL
O=[N+]([O-])c1ccc(CP(=O)(c2ccccc2)c2ccccc2)cc1	8 µg/mL (≈ 23.7 µM)
Cc1ccccc1S(=O)(=O)Nc1ncnc2sccc12	> 45.8 µg/mL
CN(CC(=O)Nc1ccccc1Br)C(=O)CN1CCN(Cc2cccc(Cl)c2)CC1	> 74.1 µg/mL
OCCNc1nc2ccccc2n1CC(O)c1ccccc1 (stereo not given)	40.4 µg/mL (≈ 136 µM)
O=C(CCNC(=O)c1ccc([N+](=O)[O-])cc1)Oc1ccc(F)c(F)c1	> 52.5 µg/mL
CN(C(=O)CSc1nc2ccc(Cl)cc2[nH]1)C1CCS(=O)(=O)C1 (stereo not given)	> 56.1 µg/mL
CCCc1nc2oc3ccccc3c(=O)c2c(=O)n1-c1ccccc1	37.2 µg/mL (≈ 112 µM)
O=S(=O)(c1c(Cl)sc(Cl)c1Br)N1CCCC1	4.4 µg/mL (≈ 12.1 µM)
Nc1nc(SCC(=O)O)[nH]c(=O)c1NC(=O)c1ccco1	> 46.5 µg/mL
COc1ccc(C(=O)NCCc2c[nH]c3ccccc23)cc1	42.6 µg/mL (≈ 145 µM)
CCOc1ccc(S(=O)(=O)NC2=NCCCCC2)cc1	> 44.5 µg/mL
Cc1cc(C(=O)COC(=O)c2ccc(NC(=O)CC#N)cc2)c(C)n1-c1ccc(OC(F)F)cc1	1.7 µg/mL (≈ 3.53 µM)
O=S(=O)(NC1CCSc2ccccc21)c1ccc(Cl)nc1 (stereo not given)	11.6 µg/mL (≈ 34 µM)
COC(=O)c1cccnc1NC(=S)NC(C)C	7.1 µg/mL (≈ 28 µM)
CCNC(=S)N(Cc1cc2c(C)ccc(C)c2[nH]c1=O)C1CCCC1	< 0.3 µg/mL
NC(=O)Nc1ccc(Cl)cc1	> 25.6 µg/mL
COc1ccc(CCC(=O)OCc2csc(CC(=O)Nc3ccc(C)cc3)n2)cc1OC	9.9 µg/mL (≈ 21.8 µM)
CCOC(=O)c1c(C)c2c(=O)[nH]cnc2n1-c1ccccc1	2.2 µg/mL (≈ 7.4 µM)
Cl.c1coc(C2=NCCc3ccccc32)c1	27.9 µg/mL
CN(CCO)C(=O)c1c(NC(=O)c2ccccc2)sc2c1CCCC2	34.1 µg/mL (≈ 95.1 µM)
Cc1nc([N+](=O)[O-])cn1CCC#N	> 27 µg/mL
CC(=O)C1=C(C)NC(=O)NC1c1ccc2c(c1)OCO2 (stereo not given)	> 41.1 µg/mL
O=C(Nc1c(S(=O)(=O)c2ccccc2)csc1Br)c1ccccc1Cl	42.9 µg/mL (≈ 93.9 µM)

Compound	solubility kinetic
CCOc1ccc(S(=O)(=O)Nc2ccc3c(c2)OCO3)cc1	45.4 µg/mL (≈ 141 µM)
Cc1cc(C)cc(OCCn2ccnc2)c1	29.3 µg/mL (≈ 135 µM)
Cc1ccc2c(c1)C1C[N+](C)(CC(=O)c3ccc(Cl)cc3Cl)CCC1N2C(=O)c1ccc(F)cc1.[Cl-] (stereo not given)	> 82.2 µg/mL
O=C(/C=C/c1ccccc1)NCCc1c[nH]c2ccccc12	19.7 µg/mL (≈ 67.8 µM)
O=C1CN(C(=O)CSc2ccccn2)c2ccccc2N1	> 44.9 µg/mL
CC(=O)c1ccc(NC(=O)C2C3CCC(C3)C2C(=O)O)cc1 (stereo not given)	> 45.2 µg/mL
CC(=O)c1ccc(NC(=O)COC(=O)CCC2CCCC2)cc1	17 µg/mL (≈ 53.6 µM)
O=C(Nc1ccc(F)c(Cl)c1)c1ccc2c(c1)OCO2	< 0.6 µg/mL
Cc1ccc(C(=O)N2CC=C(c3ccccc3)CC2)s1	3.1 µg/mL (≈ 10.9 µM)
CN(CC(=O)Nc1ccc(F)cc1)C(=O)Cn1cnc2ccc([N+](=O)[O-])cc2c1=O	5.6 µg/mL (≈ 13.5 µM)
Cc1cc(=O)n2c(n1)NC(Nc1cccc(C)c1C)=NC2c1ccccc1 (stereo not given)	1.7 µg/mL (≈ 4.73 µM)
O=C(NNC(=S)Nc1ccccc1C(F)(F)F)c1cccnc1	> 51 µg/mL
Cn1cnc2cc(NCc3ccccc3O)ccc21	36.9 µg/mL (≈ 146 µM)
COc1ccc(C2=NOC(COc3ccc([N+](=O)[O-])cc3)C2)cc1 (stereo not given)	< 0.4 µg/mL
CS(=O)(=O)N1CCN(C(=O)c2ccc3c(c2)OCCO3)CC1	> 49 µg/mL
Cc1ccc(SCC(=O)NC(=O)c2ccccc2Br)c(C)c1	> 56.7 µg/mL
CCOc1ccccc1NC(=O)COc1ccc2c(c1)OCO2	< 0.7 µg/mL
CN(Cc1ccc(F)cc1)C(=O)c1sccc1-c1ccccc1	21.4 µg/mL (≈ 65.8 µM)
NC(=O)c1ccsc1NC(=O)CN1C(=O)NC2(CCCC2)C1=O	> 50.5 µg/mL
CC(C)Cc1cc(C(=O)Nc2cccc(O)c2)no1	13.6 µg/mL (≈ 52.2 µM)
c1ccc2oc(NC3=NCN(C4CCCCC4)CN3)nc2c1	1.3 µg/mL (≈ 4.34 µM)
CCn1ccc(C(=O)Nc2ncc(C)s2)n1	> 35.4 µg/mL
O=[N+]([O-])c1ccc(NC(=S)N2CCCC2)cc1	8.2 µg/mL (≈ 32.6 µM)
C=CCn1c(=S)[nH]c2sc3c(c2c1=O)CCCC3	14.7 µg/mL (≈ 52.8 µM)
